Experimental data taken from patent US4889634A, “Dialysate solution containing hydroxypropyl-beta-cyclodextrin and method of using same” (priority 1988, dated 1989).

Experiments:
[1] = test system: rats [Crl:CD(SD) BR strain]; assay: 14-day intravenous toxicity study in rats; type: in vivo, rat
Procedure: (§1) As part of the toxicological evaluation of HPBCD, control groups of animals were dosed with HPBCD alone.
Two groups (5/sex/group) of rats [Crl:CD(SD) BR strain] were used for this study. Control rats were given 200 mg of salt per kilogram of body weight intravenously administered in a saline control solution comprising 20% salt by weight in water. The saline control was administered every second day for 14 days (i.e. seven injections). The treated rats were given 200 mg of HPBCD per kilogram of body weight intravenously administered (200 mg/kg i.v. HPBCD) via a HPBCD solution containing 20% HPBCD by weight in water on the same injection schedule. […] At the end of the study the animals were necropsied, gross pathology was observed, histopathological samples were prepared and blood was drawn for clinical laboratory measurements.

Cynomolgus monkeys = settings: cynomolgus monkey, in vivo
Procedure: as §1
Two groups (1/sex/group) of Cynomolgus monkeys were used for this study. Control monkeys were given 200 mg of salt per kilogram of body weight intravenously administered as a saline control solution of 20% by weight in water. The saline control was administered every second day for 14 days (i.e. 7 doses). The treated monkeys were given 200 mg/kg i.v. HPBCD on the same injection schedule. […] At the end of the study the animals were necropsied, gross pathology was observed, histopathology samples were prepared and blood was drawn for clinical laboratory measurements.

[2] = male rats, 200 mg/kg i.v., 14 days

hydroxypropyl-beta-cyclodextrin [HPBCD]
Calcium [1, 2]: 9.8 ± 0.31 mg/dL
Chlorine [1, 2]: 106.0 ± 1.80 mmol/L
Cholesterol [1, 2]: 33.0 ± 7.10 mg/dL
Creatinine [1, 2]: 0.8 ± 0.04 mg/dL
Eosinophils [1, 2]: 0.07 ± 0.05 × 10^3 /mm^3
Globulin [1, 2]: 3.3 ± 0.20 G/dL
Glucose (blood) [1, 2]: 94.1 ± 7.43 mg/dL
Hematocrit [1, 2]: 48.6 ± 1.74%
Hemoglobin [1, 2]: 14.6 ± 0.51 G/DL
Ionic phosphate [1, 2]: 9.7 ± 0.34 mg/dL
Lymphocytes [1, 2]: 7.13 ± 1.08 × 10^3 /mm^3
Mean corpuscle [1, 2]: 64.0 ± 2.20 fL
Mean corpuscle hemoglobin [1, 2]: 19.3 ± 0.60 pg
Mean corpuscle hemoglobin concentrative [1, 2]: 30.0 ± 0.35%
Monocytes [1, 2]: 0.08 ± 0.01 × 10^3 /mm^3
Normal blood cells [1, 2]: 0 ± 0.0 /100 white blood cells
Platelet count [1, 2]: 1020.0 ± 79.5 × 10^3 /mm^3
Potassium [1, 2]: 4.7 ± 0.15 mmol/L
Red blood cell [1, 2]: 7.55 ± 0.17 × 10^6 /mm^3
Segmented neutrophils [1, 2]: 0.61 ± 0.44 × 10^3 /mm^3
Sodium [1, 2]: 142 ± 1.5 mM
Total bilirubin [1, 2]: 0.2 ± 0.04 mg/dL
Total proteins [1, 2]: 6.3 ± 0.18 G/dL
Triglycerides [1, 2]: 57.0 ± 17.10 mg/dL
White blood cells [1, 2]: 7.9 ± 1.18 × 10^3 /mm^3
Number of deaths ([1]; male, 200 mg/kg i.v. every second day, 14 days): 0/5
Kidney weight to total body weight ratio ([1]; males): 0.9022 Weight Percent of Total Body W
Adrenals weight to total body weight ratio ([1]; rat, in vivo): 0.0212 Weight Percent of Total Body W
Clinical laboratory values vs controls ([1]; rat, in vivo): no observed clinically significant differences
Epididymes weight to total body weight ratio ([1]; rat, in vivo): 0.2635 Weight Percent of Total Body W
Organ to body ratios between groups ([1]; rat, in vivo): not different between the groups
Ovaries weight to total body weight ratio ([1]; rat, in vivo): 0.0574 Weight Percent of Total Body W
Prostate weight to total body weight ratio ([1]; rat, in vivo): 0.2091 Weight Percent of Total Body W
Testes weight to total body weight ratio ([1]; rat, in vivo): 1.0209 Weight Percent of Total Body W
Uterus weight to total body weight ratio ([1]; rat, in vivo): 0.3278 Weight Percent of Total Body W
Alanine amino transferase ([1]; rat, in vivo, iv, 200 mg/kg): 21.0 ± 2.30 IU/L
Albumin ([1]; rat, in vivo, iv, 200 mg/kg): 3.1 ± 0.08 G/dL
Alkaline phosphatase ([1]; rat, in vivo, iv, 200 mg/kg): 109.0 ± 16.20 IU/L
Aspartate amino transferase ([1]; rat, in vivo, iv, 200 mg/kg): 102.0 ± 162.00 IU/L
Basophils ([1]; rat, in vivo, iv, 200 mg/kg): 0.00 ± 0.00 × 10^3 /mm^3
Blood urea nitrogen ([1]; rat, in vivo, iv, 200 mg/kg): 13.2 ± 2.52 mg/dL
Calcium ([1]; rat, in vivo, iv, 200 mg/kg): 10.1 ± 0.82 mg/dL
Chlorine ([1]; rat, in vivo, iv, 200 mg/kg): 107.0 ± 2.60
Cholesterol ([1]; rat, in vivo, iv, 200 mg/kg): 52.0 ± 18.60 mg/dL
Creatinine ([1]; rat, in vivo, iv, 200 mg/kg): 0.8 ± 0.11 mg/dL
Eosinophils ([1]; rat, in vivo, iv, 200 mg/kg): 0.06 ± 0.04 × 10^3 /mm^3
Globulin ([1]; rat, in vivo, iv, 200 mg/kg): 3.4 ± 0.26 G/dL
Glucose (blood) ([1]; rat, in vivo, iv, 200 mg/kg): 100.0 ± 14.07 mg/dL
Hematocrit ([1]; rat, in vivo, iv, 200 mg/kg): 47.2 ± 5.59%
Hemoglobin ([1]; rat, in vivo, iv, 200 mg/kg): 13.6 ± 3.06 G/DL
Ionic phosphate ([1]; rat, in vivo, iv, 200 mg/kg): 8.3 ± 0.82 mg/dL
Lymphocytes ([1]; rat, in vivo, iv, 200 mg/kg): 6.80 ± 2.42 × 10^3 /mm^3
Mean corpuscle ([1]; rat, in vivo, iv, 200 mg/kg): 65.0 ± 2.70 fL
Mean corpuscle hemoglobin ([1]; rat, in vivo, iv, 200 mg/kg): 18.4 ± 2.41 pg
Monocytes ([1]; rat, in vivo, iv, 200 mg/kg): 0.05 ± 0.08 ×10^3 /mm^3
Normal blood cells ([1]; rat, in vivo, iv, 200 mg/kg): 0.0 ± 0.00 /100 white blood cells
Platelet count ([1]; rat, in vivo, iv, 200 mg/kg): 924 ± 395.20 × 10^3 /mm^3
Potassium ([1]; rat, in vivo, iv, 200 mg/kg): 4.5 ± 0.16 mmol/L
Red blood cell ([1]; rat, in vivo, iv, 200 mg/kg): 7.32 ± 1.00 × 10^6 /mm^3
Segmented neutrophils ([1]; rat, in vivo, iv, 200 mg/kg): 0.49 ± 0.22 × 10^3 /mm^3
Sodium ([1]; rat, in vivo, iv, 200 mg/kg): 141.0 ± 1.10 mM
Total bilirubin ([1]; rat, in vivo, iv, 200 mg/kg): 0.3 ± 0.05 mg/dL
Total proteins ([1]; rat, in vivo, iv, 200 mg/kg): 6.5 ± 0.38 G/dL
Changes in behavior (Cynomolgus monkeys): No changes in behavior were observed
Changes in daily food consumption (Cynomolgus monkeys): No weight changes were observed (TABLE XIII) or changes in daily food consumption
Gross pathological changes and histopathological findings (Cynomolgus monkeys): No gross pathological changes and no histopathological findings were observed
Hematology and clinical chemistry values (Cynomolgus monkeys): No differences were seen
Weight changes (Cynomolgus monkeys): No weight changes were observed
Basophils (Cynomolgus monkeys; 200 mg/kg): 0.00 × 10^3 /mm^3
Immature neutrophils (Cynomolgus monkeys; 200 mg/kg): 0.00 × 10^3 mm^3
Normal blood cells (Cynomolgus monkeys; 200 mg/kg): 0.00 /100 white blood cells
